We go through 37 compounds from ChEMBL document CHEMBL5230084, “Indole-based derivatives as potential antibacterial activity against methicillin-resistance Staphylococcus aureus (MRSA)” (Eur J Med Chem, 2020).

Values after ≈ are worked out from the molar mass of the structure shown. Where only a bound is given, the exact number is not on record here.

The assay relates to Staphylococcus aureus. Briefly: Antibacterial activity against methicillin-resistant Staphylococcus aureus. The assay is classed as functional.

For `Nc1nnc(Cc2c[nH]c3ccccc23)s1`, it took 3.12 µg/mL (≈ 13.6 µM) to inhibit growth (MIC).

On to `Fc1ccc(C(c2c[nH]c3ccc(Br)cc23)c2c[nH]c3ccc(Br)cc23)cc1`, for which the MIC – broadly, the least concentration at which growth counts as inhibited – stood at 1 µg/mL (≈ 2.01 µM). This MIC lies about 3.1-fold lower than the previous one.

`Clc1ccc(C(c2c[nH]c3ccc(Br)cc23)c2c[nH]c3ccc(Br)cc23)cc1` had an MIC of 1 µg/mL (≈ 1.94 µM).

The compound `Oc1ccc(C(c2c[nH]c3ccc(Br)cc23)c2c[nH]c3ccc(Br)cc23)cc1` came in with a minimum inhibitory concentration (MIC) of 1 µg/mL (≈ 2.02 µM).

As for `Oc1cccc(C(c2c[nH]c3ccc(Br)cc23)c2c[nH]c3ccc(Br)cc23)c1`, the MIC is 1 µg/mL (≈ 2.02 µM).

Turning to `Clc1ccc2c(Cl)cc(-c3c[nH]c4ccc(Br)cc34)nc2c1`, the MIC is less than 1 µg/mL.

As for `OCc1cc(-c2c[nH]c3ccc(Br)cc23)nc2cc(Cl)ccc12`, the MIC is less than 1 µg/mL.

The compound `Clc1ccc2nc(-c3c[nH]c4ccc(Cl)cc34)ccc2c1` had a minimal inhibitory concentration (MIC) of 0.62 µg/mL (≈ 1.98 µM).

`CCn1cc(Br)c2c3c(-c4ccc(Cl)cc4)onc3ccc21` showed an MIC of 4.3 µg/mL (≈ 11.4 µM).

In turn, `Brc1ccc2[nH]cc(C3Nc4ccc(I)cc4[C@H]4OCO[C@@H]34)c2c1` (some centres not stated) returned an MIC of 0.31 µg/mL (≈ 0.624 µM).

`Cc1ccc(-c2onc3ccc4c(c(Br)cn4C(C)(C)C)c23)cc1` returned an MIC of 4.3 µg/mL (≈ 11.2 µM).

Turning to `CCCNc1nnc(Cc2c[nH]c3ccccc23)s1`, inhibition of growth (MIC) required 6.25 µg/mL (≈ 22.9 µM).

With `c1ccc2c(-c3c[nH]c4ccccc34)c3c(nc2c1)[nH]c1ccccc13`, the MIC was determined as 1 µg/mL (≈ 3 µM).

`COC(=O)c1ccc(-c2ccc3c(c2)c(/C=N/NC(=N)N)cn3S(=O)(=O)c2ccccc2)cc1` came in with an MIC of 3.13 µg/mL (≈ 6.58 µM).

Turning to `CCCCn1cc(Br)c2c3c(-c4ccc(C)cc4)onc3ccc21`, the MIC turned out to be 4.3 µg/mL (≈ 11.2 µM).

As to `CCCCn1cc(Br)c2c3c(-c4ccc(Cl)cc4)onc3ccc21`, 5 µg/mL (≈ 12.4 µM) was the least that counted as inhibitory (MIC).

Compound `N=C(N)N/N=C/c1cn(S(=O)(=O)c2ccccc2)c2ccc(-c3ccc(OC(F)(F)F)cc3)cc12` had an MIC of 3.13 µg/mL (≈ 6.24 µM).

In turn, `CCCn1cc(Br)c2c3c(-c4ccc(OC)cc4)occ3ccc21` displayed an MIC of 1.4 µg/mL (≈ 3.64 µM). This MIC is about 2.2-fold lower than that of the compound before.

As to `CC(=O)/C(=C\c1cn(CC(=O)N2CCCCC2)c2ccccc12)n1c([N+](=O)[O-])cnc1C`, the minimum inhibitory concentration (MIC) was 1 µg/mL (≈ 2.3 µM). The MIC values of the last two compounds are within 1.5-fold of each other.

On to `N=C(N)N/N=C/c1cn(S(=O)(=O)c2ccccc2)c2ccc(-c3ccc(F)c(Cl)c3)cc12`, for which it took 3.13 µg/mL (≈ 6.66 µM) to inhibit growth (MIC).

`CCCCn1cc(Br)c2c3c(-c4ccc(OC)cc4)occ3ccc21`: the MIC amounted to 1.4 µg/mL (≈ 3.51 µM). Against the preceding compound, the MIC is about 2.2-fold lower.

On to `N=C(N)N/N=C/c1cn(S(=O)(=O)c2ccccc2)c2ccc(-c3ccc(C(F)(F)F)cc3)cc12`, for which the minimal inhibitory concentration (MIC) amounted to 3.13 µg/mL (≈ 6.45 µM).

`CC(C)(C)n1cc(Br)c2c3c(-c4ccc(Cl)cc4)onc3ccc21` displayed an MIC of 4.3 µg/mL (≈ 10.7 µM).

In the case of `CCn1cc(Br)c2c3c(-c4ccc(OC)cc4)occ3ccc21`, the lowest concentration to inhibit growth (MIC) was 1.4 µg/mL (≈ 3.78 µM).

The compound `Clc1ccc(-n2nc(C3CCNCC3)cc2/C=C/c2c[nH]c3ccc(Cl)cc23)cc1` yielded a minimum inhibitory concentration (MIC) of 1 µg/mL (≈ 2.29 µM).

Regarding `Fc1cccc(Nc2nnc(Cc3c[nH]c4ccccc34)s2)c1`, inhibition of growth (MIC) required 25 µg/mL (≈ 77.1 µM). Compared with the last compound, the MIC is about 25-fold higher.

The compound `Clc1ccc2c(c1)[C@H]1OCO[C@H]1C(c1c[nH]c3ccc(Br)cc13)N2` (some centres not stated) registered an MIC of 0.31 µg/mL (≈ 0.764 µM).

The compound `COc1ccc2nc3[nH]c4ccccc4c3c(-c3c[nH]c4ccccc34)c2c1` had an MIC of 4 µg/mL (≈ 11 µM).

The compound `Fc1ccc(Nc2nnc(Cc3c[nH]c4ccccc34)s2)c(F)c1` yielded an MIC of 50 µg/mL (≈ 146 µM).

Take `N=C(N)N/N=C/c1cn(S(=O)(=O)c2ccccc2)c2ccc(-c3cccc(OC(F)(F)F)c3)cc12`: the MIC was found to be 3.13 µg/mL (≈ 6.24 µM).

`c1ccc(Nc2nnc(Cc3c[nH]c4ccccc34)s2)cc1` displayed an MIC of 25 µg/mL (≈ 81.6 µM).

In turn, `Clc1ccc(Nc2nnc(Cc3c[nH]c4ccccc34)s2)c(Cl)c1` returned an MIC of 25 µg/mL (≈ 66.6 µM).

Regarding `COc1ccc(-c2occ3ccc4c(c(Br)cn4C(C)(C)C)c23)cc1`, the MIC is 1.4 µg/mL (≈ 3.51 µM).

Take `Clc1ccc2nc(-c3c[nH]c4ccc(Br)cc34)ccc2c1`: the MIC worked out at 0.62 µg/mL (≈ 1.73 µM).

Compound `Fc1ccc2[nH]cc(-c3ccc4cc(Cl)ccc4n3)c2c1` returned an MIC of 0.62 µg/mL (≈ 2.09 µM).

Take `Fc1ccc2c(-c3ccc4cc(Cl)ccc4n3)c[nH]c2c1`: the MIC stood at 0.62 µg/mL (≈ 2.09 µM).

The compound `CC1=C(C(=O)O)N2C(=O)[C@@H](NC(=O)[C@H](N)c3ccccc3)[C@H]2SC1` [CEPHALEXIN ANHYDROUS] gave an MIC of 72 µg/mL (≈ 207 µM).
